Reference: patent publication US20140107109A1, “AMINO-DIHYDROTHIAZINE AND AMINO-DIOXIDO DIHYDROTHIAZINE COMPOUNDS AS BETA-SECRETASE ANTAGONISTS AND METHODS OF USE” (Amgen Inc., priority 2012, published 2014)
Read-outs that look alike come from different tables or passages of the source.

Key:
[1] = test system: Aβ40 in conditioned medium of cells stably expressing Amyloid Precursor Protein (APP); assay: In vitro BACE cell-based assay (HEK cell assay), Aβ40 sandwich ELISA; conditions: Homo sapiens, HEK293
Summary of the method: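 APP-stably expressing cells (40K/well, grown 24 h in DMEM/10% FBS) were treated 24 h with compounds in 10-point dose response starting at 100 μM or 10 μM, 0.1% DMSO final. Secreted Aβ40 was measured by sandwich ELISA (pAb40 capture, biotinylated 6E10 detection, europium time-resolved fluorescence); IC50 from percent inhibition.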

[2] = molecular target: Beta Secretase enzyme (BACE1) (Homo sapiens, UniProt P56817); assay: In vitro enzymatic BACE FRET assay; format: biochemical; conditions: read-out: BACE1 FRET assay IC50
Sequence of Beta Secretase enzyme (BACE1) (P56817 46-501): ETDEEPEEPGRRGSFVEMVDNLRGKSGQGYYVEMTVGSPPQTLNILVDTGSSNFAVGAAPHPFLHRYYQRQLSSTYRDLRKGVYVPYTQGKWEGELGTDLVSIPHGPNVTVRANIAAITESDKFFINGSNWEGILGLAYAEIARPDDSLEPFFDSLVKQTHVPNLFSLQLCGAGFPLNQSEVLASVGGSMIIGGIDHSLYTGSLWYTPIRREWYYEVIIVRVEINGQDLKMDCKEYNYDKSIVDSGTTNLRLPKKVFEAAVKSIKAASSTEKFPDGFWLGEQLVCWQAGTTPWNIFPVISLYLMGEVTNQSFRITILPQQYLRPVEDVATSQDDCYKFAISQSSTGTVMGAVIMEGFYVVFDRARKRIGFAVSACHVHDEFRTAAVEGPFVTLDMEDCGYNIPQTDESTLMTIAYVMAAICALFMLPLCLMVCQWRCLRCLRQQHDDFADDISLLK
Summary of the method: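 BACE1 cleavage of a 50 nM fluorophore/quencher peptide FRET substrate ran for one hour in 0.05 M acetate pH 4.2, 10% DMSO, 100 uM genapol. Tris buffer raised pH to neutrality to stop the reaction before fluorescence was read (excitation 488 nm, […]).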

Cathepsin D (Cat D) = molecular target: T1, Cathepsin D (Cat D) (Homo sapiens, UniProt P07339); assay: In vitro enzymatic Cathepsin D (Cat D) FRET assay; format: biochemical; conditions: read-out: CatD IC50
T1 construct: Recombinant Cat D was expressed in CHO cells; made in house; host or cells: CHO cells
T1 sequence (P07339 65-412, species assumed): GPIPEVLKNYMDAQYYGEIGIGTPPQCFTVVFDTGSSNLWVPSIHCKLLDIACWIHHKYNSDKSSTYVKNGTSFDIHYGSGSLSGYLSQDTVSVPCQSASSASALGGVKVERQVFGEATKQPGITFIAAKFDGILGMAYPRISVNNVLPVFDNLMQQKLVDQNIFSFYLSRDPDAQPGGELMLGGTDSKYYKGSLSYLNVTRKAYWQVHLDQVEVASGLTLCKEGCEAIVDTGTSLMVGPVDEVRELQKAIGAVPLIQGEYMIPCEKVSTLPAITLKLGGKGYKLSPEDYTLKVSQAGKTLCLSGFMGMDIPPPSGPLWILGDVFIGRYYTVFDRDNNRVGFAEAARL
Summary of the method: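 Recombinant Cat D expressed in CHO cells, used at 9 nM and pre-incubated one hour with serially diluted inhibitor in DMSO. Peptide substrate carries a fluorophore and quencher flanking the cleavage site; reaction stopped with Tris buffer raising pH to neutrality, then fluorescence read.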

SMILES	IC50 ([1]; Aβ40, 24 h incubation) [µM]	IC50 [2] [µM]	IC50 (Cathepsin D (Cat D)) [µM]	IC50 ([1]; average IC50, cell assay) [µM]	IC50 ([2]; average IC50, enzyme assay) [µM]	IC50 [1] [µM]
CC1(C)C(N)=N[C@](C)(c2cc(Nc3ncc(F)c4cc(C#N)cnc34)ccc2F)CS1(=O)=O [Example 76, (R)-8-((3-(5-Amino-3,6,6-trimethyl-1,1-dioxido-3,6-dihydro-2H-1,4-thiazin-3-yl)-4-fluorophenyl)amino)-5-fluoro-1,7-naphthyridine-3-carbonitrile]	0.0039	0.002	> 44	–	–	–
CC1(C)C(N)=N[C@@](C)(c2cc(Nc3noc4cc(Cl)cnc34)ccc2F)CS1(=O)=O [Example 78, (S)-5-Amino-3-(5-((6-chloroisoxazolo[4,5-b]pyridin-3-yl)amino)-2-fluorophenyl)-3,6,6-trimethyl-3,6-dihydro-2H-1,4-thiazine 1,1-dioxide]	0.0944	0.0138	45.6	–	–	–
CC1(C)C(N)=N[C@](C)(c2cc(Sc3cccc4ccccc34)ccc2F)CS1(=O)=O [Example 79, (R)-5-Amino-3-(2-fluoro-5-(naphthalen-1-ylthio)phenyl)-3,6,6-trimethyl-3,6-dihydro-2H-1,4-thiazine 1,1-dioxide]	4.94	2.5	33.7	–	–	–
COc1cnc(C(=O)Nc2ccc(F)c([C@]3(C)CS(=O)(=O)C(C)C(N)=N3)c2)cn1 (stereo partly drawn) [Example 82, N-(3-((3R)-5-Amino-3,6-dimethyl-1,1-dioxido-3,6-dihydro-2H-1,4-thiazin-3-yl)-4-fluorophenyl)-5-methoxypyrazine-2-carboxamide]	0.0125	0.0075	> 400	–	–	–
COc1cnc2c(Nc3ccc(F)c([C@]4(C)CS(=O)(=O)C5(CCCC5)C(N)=N4)c3)nccc2c1 [Example 84, (R)-10-Amino-8-(2-fluoro-5-((3-methoxy-1,7-naphthyridin-8-yl)amino)phenyl)-8-methyl-6-thia-9-azaspiro[4.5]dec-9-ene 6,6-dioxide]	0.0575	0.0234	283	–	–	–
COc1cnc2c(Nc3ccc(F)c([C@]4(C)CS(=O)(=O)C5(CC5)C(N)=N4)c3)nccc2c1 [Example 86, (R)-8-Amino-6-(2-fluoro-5-((3-methoxy-1,7-naphthyridin-8-yl)amino)phenyl)-6-methyl-4-thia-7-azaspiro[2.5]oct-7-ene 4,4-dioxide]	0.0082	0.0136	160	–	–	–
CC1(C)C(N)=N[C@](C)(c2cc(Oc3ccc(C#N)cc3)ccc2F)CS1(=O)=O [Example 96, (R)-4-(3-(5-amino-3,6,6-trimethyl-1,1-dioxido-3,6-dihydro-2H-1,4-thiazin-3-yl)-4-fluorophenoxy)benzonitrile]	6.02	1.8	58.7	–	–	–
CC1(C)C(N)=N[C@](C)(c2cc(Oc3cc(F)cc(C(F)(F)F)c3)ccc2F)CS1(=O)=O [Example 98, (R)-5-amino-3-(2-fluoro-5-(3-fluoro-5-(trifluoromethyl)phenoxy)phenyl)-3,6,6-trimethyl-3,6-dihydro-2H-1,4-thiazine 1,1-dioxide]	5.04	0.135	56.3	–	–	–
CCc1cccc(Oc2ccc(F)c([C@]3(C)CS(=O)(=O)C(C)(C)C(N)=N3)c2)c1 [Example 99, (R)-5-amino-3-(5-(3-ethylphenoxy)-2-fluorophenyl)-3,6,6-trimethyl-3,6-dihydro-2H-1,4-thiazine 1,1-dioxide]	6.68	1.43	86.8	–	–	–
CCc1cc(Oc2ccc(F)c([C@]3(C)CS(=O)(=O)C(C)(C)C(N)=N3)c2)ccc1Cl [Example 100, (R)-5-amino-3-(5-(4-chloro-3-ethylphenoxy)-2-fluorophenyl)-3,6,6-trimethyl-3,6-dihydro-2H-1,4-thiazine 1,1-dioxide]	> 10	1.55	17.7	–	–	–
COc1ccc(C)cc1Oc1ccc(F)c([C@]2(C)CS(=O)(=O)C(C)(C)C(N)=N2)c1 [Example 101, (R)-5-amino-3-(2-fluoro-5-(2-methoxy-5-methylphenoxy)phenyl)-3,6,6-trimethyl-3,6-dihydro-2H-1,4-thiazine 1,1-dioxide]	> 10	15.2	194	–	–	–
CC1(C)C(N)=N[C@](C)(c2cc(Oc3ccc4ccccc4c3)ccc2F)CS1(=O)=O [Example 102, (R)-5-amino-3-(2-fluoro-5-(naphthalen-2-yloxy)phenyl)-3,6,6-trimethyl-3,6-dihydro-2H-1,4-thiazine 1,1-dioxide]	8.04	2.35	51.2	–	–	–
CC1(C)C(N)=N[C@](C)(c2cc(Oc3ccccn3)ccc2F)CS1(=O)=O [Example 103, (R)-5-amino-3-(2-fluoro-5-(pyridin-2-yloxy)phenyl)-3,6,6-trimethyl-3,6-dihydro-2H-1,4-thiazine 1,1-dioxide]	0.213	0.119	246	–	–	–
CC1(C)C(N)=N[C@](C)(c2cc(Nc3ncnc4cc(OCC5CC5)cnc34)ccc2F)CS1(=O)=O [Example 104, (R)-5-amino-3-(5-((7-(cyclopropylmethoxy)pyrido[3,2-d]pyrimidin-4-yl)amino)-2-fluorophenyl)-3,6,6-trimethyl-3,6-dihydro-2H-1,4-thiazine 1,1-dioxide]	–	–	358	0.0052	0.00154	–
Cc1nc2c(Nc3ccc(F)c([C@]4(C)CS(=O)(=O)C(C)(C)C(N)=N4)c3)cccc2s1 [Example 105, (R)-5-amino-3-(2-fluoro-5-((2-methylbenzo[d]thiazol-4-yl)amino)phenyl)-3,6,6-trimethyl-3,6-dihydro-2H-1,4-thiazine 1,1-dioxide]	–	–	145	0.742	0.184	–
CC1(C)C(N)=N[C@](C)(c2cc(NCc3nn(CC(F)(F)F)cc3Cl)ccc2F)CS1(=O)=O [Example 108, (R)-5-amino-3-(5-(((4-chloro-1-(2,2,2-trifluoroethyl)-1H-pyrazol-3-yl)methyl)amino)-2-fluorophenyl)-3,6,6-trimethyl-3,6-dihydro-2H-1,4-thiazine 1,1-dioxide]	–	–	49.8	0.161	0.0452	–
CC1(C)C(N)=N[C@](C)(c2cc(NCc3c(Cl)cnn3CC(F)(F)F)ccc2F)CS1(=O)=O [Example 109, (R)-5-amino-3-(5-(((4-chloro-1-(2,2,2-trifluoroethyl)-1H-pyrazol-5-yl)methyl)amino)-2-fluorophenyl)-3,6,6-trimethyl-3,6-dihydro-2H-1,4-thiazine 1,1-dioxide]	–	–	12.2	0.36	0.208	–
Cc1cnc(C(=O)Nc2ccc(F)c([C@]3(C)CS(=O)(=O)C(C)(C)C(N)=N3)c2)cn1 [Example 110, (R)—N-(3-(5-amino-3,6,6-trimethyl-1,1-dioxido-3,6-dihydro-2H-1,4-thiazin-3-yl)-4-fluorophenyl)-5-methylpyrazine-2-carboxamide]	–	0.0202	1840	–	–	0.0144
Cc1cnc(C(=O)Nc2ccc(F)c([C@]3(C)CS(=O)(=O)C(C)(C)C(N)=N3)c2)c(C)n1 [Example 111, ®-N-(3-(5-amino-3,6,6-trimethyl-1,1-dioxido-3,6-dihydro-2H-1,4-thiazin-3-yl)-4-fluorophenyl)-3,5-dimethylpyrazine-2-carboxamide]	–	0.0182	> 400	–	–	0.0244
C[C@@]1(c2cc(Nc3nccc4cc(Cl)cnc34)ccc2F)CS(=O)(=O)C2(CCC2)C(N)=N1 [Example 116, (R)-9-amino-7-(5-((3-chloro-1,7-naphthyridin-8-yl)amino)-2-fluorophenyl)-7-methyl-5-thia-8-azaspiro[3.5]non-8-ene 5,5-dioxide]	–	–	38.8	0.0263	0.00115	–
C[C@@]1(c2cc(Nc3nccc4cc(C#N)cnc34)ccc2F)CS(=O)(=O)C2(CCC2)C(N)=N1 [Example 117, (R)-8-((3-(9-amino-7-methyl-5,5-dioxido-5-thia-8-azaspiro[3.5]non-8-en-7-yl)-4-fluorophenyl)amino)-1,7-naphthyridine-3-carbonitrile]	–	–	28.3	0.0051	0.00189	–
C[C@@]1(c2cc(Br)ccc2F)CS(=O)(=O)[C@]2(C[C@@H](F)C2)C(N)=N1 [Example 118, (2S,4s,7R)-9-amino-7-(5-bromo-2-fluorophenyl)-2-fluoro-7-methyl-5-thia-8-azaspiro[3.5]non-8-ene 5,5-dioxide]	–	–	31.1	> 15.6	4.09	–
C[C@@]1(c2cc(NC(=O)c3ccc(Cl)cn3)ccc2F)CS(=O)(=O)C2(CC(F)(F)C2)C(N)=N1 [Example 120, (R)—N-(3-(9-amino-2,2-difluoro-7-methyl-5,5-dioxido-5-thia-8-azaspiro[3.5]non-8-en-7-yl)-4-fluorophenyl)-5-chloropicolinamide]	–	0.0013	148	–	–	0.0272
Cc1cc(OC(F)F)cnc1C(=O)Nc1ccc(F)c([C@]2(C)CS(=O)(=O)C3(CCC3)C(N)=N2)c1 [Example 121, (R)—N-(3-(9-amino-7-methyl-5,5-dioxido-5-thia-8-azaspiro[3.5]non-8-en-7-yl)-4-fluorophenyl)-5-(difluoromethoxy)-3-methylpicolinamide]	–	0.00311	67.5	–	–	0.0074
